From PMC9950745, “A novel promising laccase from the psychrotolerant and halotolerant Antarctic marine Halomonas sp. M68 strain” (Frontiers in Microbiology, 2023) come the findings set out here.

The subject of the test is T1, Ant laccase.
T1 construct: gene copA
The experiment in a line: spectrophotometric oxidation assay at […] nm, Michaelis-Menten fit. To be noted: 50 mM sodium acetate, pH 5.0, 20°C; partially purified preparation SNP30. The format is biochemical.

A word on the Km: it is the concentration of substrate that gives half-maximal velocity.

SMILES strings stand for the structures.

In the case of `CCn1c(=NN=c2sc3cc(S(=O)(=O)O)ccc3n2CC)sc2cc(S(=O)(=O)O)ccc21` [ABTS, 2,2′-azino-bis (3-ethylbenzothiazoline-6-sulfonic acid)], the Michaelis constant (Km) is ~2000 µM.
